From the supplement of paper PMC4862054

Columns and labels:
Conditions in all cases: incubation time: 72 h
HCC1937 = experiment: drug sensitivity score (DSS), CellTox Green (DSS (AUC-based score)); higher = stronger drug effect (viability inhibition or cytotoxicity); extreme values may be limits of the assay
Summary of the method: (§1)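 The area under the fitted dose-response curve was used to calculate the drug sensitivity score. Cells from breast cancer lines were incubated for 72 h in 384-well plates with compound at 5 concentrations spaced 10-fold over a 10,000-fold range specific to each compound. Plates were read for CellTox Green and then CellTiter-Glo, and normalised to 0.1 % DMSO and a positive kill control.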

CAL-120 [1] = experiment: as above
Summary of the method: as §1

MCF-10A [2] = experiment: as above
Summary of the method: as §1

HCC1599 [3] = experiment: as above
Summary of the method: as §1

CAL-85-1 [4] = experiment: as above
Summary of the method: as §1

CAL-51 = experiment: as above
Summary of the method: as §1

BT-474 [5] = experiment: as above
Summary of the method: as §1

Hs578T [6] = experiment: as above
Summary of the method: as §1

MDA-MB-231 = experiment: as above
Summary of the method: as §1

MDA-MB-436 [7] = experiment: as above
Summary of the method: as §1

DU-4475 [8] = experiment: as above
Summary of the method: as §1

MDA-MB-468 [9] = experiment: as above
Summary of the method: as §1

MDA-MB-453 [10] = experiment: as above
Summary of the method: as §1

HCC1143 [11] = experiment: as above
Summary of the method: as §1

HDQ-P1 = experiment: normalised response (% of control), CellTox Green; higher = less cell death (100 = DMSO, 0 = benzethonium chloride kill control)
Summary of the method: (§2)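 In 384-well plates holding compound at 5 concentrations in 10-fold steps over a 10,000-fold range specific to each compound, breast cancer cell lines were seeded as 20 µl suspension and incubated 72 h. CellTox Green fluorescence was measured at 485/520 nm, after which CellTiter-Glo luminescence was measured following 10 min at room temperature. Plate signals were normalised to 0.1 % DMSO (100) and a positive kill control (0), and each value is the normalised signal at a single concentration.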

BT-549 = experiment: as above
Summary of the method: as §2

CAL-120 [12] = experiment: as above
Summary of the method: as §2

MCF-10A [13] = experiment: as above
Summary of the method: as §2

HCC1599 [14] = experiment: as above
Summary of the method: as §2

CAL-85-1 [15] = experiment: as above
Summary of the method: as §2

HCC1143 [16] = experiment: as above
Summary of the method: as §2

BT-474 [17] = experiment: as above
Summary of the method: as §2

Hs578T [18] = experiment: as above
Summary of the method: as §2

MDA-MB-436 [19] = experiment: as above
Summary of the method: as §2

CAL-148 = experiment: as above
Summary of the method: as §2

DU-4475 [20] = experiment: as above
Summary of the method: as §2

MDA-MB-468 [21] = experiment: as above
Summary of the method: as §2

MDA-MB-453 [22] = experiment: as above
Summary of the method: as §2

Row | SMILES | drug sensitivity score (HCC1937) | drug sensitivity score (CAL-120 [1]) | drug sensitivity score (MCF-10A [2]) | drug sensitivity score (HCC1599 [3]) | drug sensitivity score (CAL-85-1 [4]) | drug sensitivity score (CAL-51) | drug sensitivity score (BT-474 [5]) | drug sensitivity score (Hs578T [6]) | drug sensitivity score (MDA-MB-231) | drug sensitivity score (MDA-MB-436 [7]) | drug sensitivity score (DU-4475 [8]) | drug sensitivity score (MDA-MB-468 [9]) | drug sensitivity score (MDA-MB-453 [10]) | drug sensitivity score (HCC1143 [11]) | normalised response (HDQ-P1) | normalised response (BT-549) | normalised response (CAL-120 [12]) | normalised response (MCF-10A [13]) | normalised response (HCC1599 [14]) | normalised response (CAL-85-1 [15]) | normalised response (HCC1143 [16]) | normalised response (BT-474 [17]) | normalised response (Hs578T [18]) | normalised response (MDA-MB-436 [19]) | normalised response (CAL-148) | normalised response (DU-4475 [20]) | normalised response (MDA-MB-468 [21]) | normalised response (MDA-MB-453 [22])
1 | CCn1c(-c2nonc2N)nc2cnc(Oc3cccc(NC(=O)c4ccc(OCCN5CCOCC5)cc4)c3)cc21 | 0 | 0 | 0 | 0 | 0 | 11.2 | 0 | 0 | 4.85 | 0 | 0 | 0.303 | 0 | – | – | – | – | – | – | – | – | – | – | – | – | – | – | –
2 | O=P1(N(CCCl)CCCl)NCCCO1 (configuration not stated) [Cyclophosphamide] | 0 | 0 | 0 | 0 | 0 | 0 | 0 | – | 0 | 0 | 0 | – | 0 | 0 | – | – | – | – | – | – | – | – | – | – | – | – | – | –
3 | NC(=O)c1ccc(I)c([N+](=O)[O-])c1 [Iniparib] | 0 | 0.0859 | 1.4 | 0 | 0 | 0.811 | 0 | – | 0 | 0 | 0 | 0 | 0 | 1.54 | – | – | – | – | – | – | – | – | – | – | – | – | – | –
4 | Cc1ccc(NC(=O)c2ccc(CN3CCN(C)CC3)cc2)cc1Nc1nc(-c2cccnc2)cs1 [Masitinib] | 0 | 0 | 0 | 0.597 | 0 | 0 | 0 | 1.55 | 5.53 | – | 0 | 1.39 | 0 | 0 | – | – | – | – | – | – | – | – | – | – | – | – | – | –
5 | O=C(Nc1cccnc1)N1CCC(Cc2cccc(Oc3ccc(C(F)(F)F)cn3)c2)CC1 [PF-3845] (10000 nM) | – | – | – | – | – | – | – | – | – | – | – | – | – | – | 52.3% | 111% | 97.4% | 103% | 95.7% | 69.5% | 126% | 76.7% | 90.3% | 101% | 103% | 101% | 172% | 63.6%
6 | Cc1[nH]c2ccccc2c1CCNCc1ccc(/C=C/C(=O)NO)cc1 [Panobinostat] (100 nM) | – | – | – | – | – | – | – | – | – | – | – | – | – | – | 90% | 105% | 28.7% | 99.6% | 75% | 10.4% | 71.8% | 36.8% | -15.2% | 10.6% | -4.89% | 62.1% | 82.5% | 88.3%
7 | Cc1[nH]c2ccccc2c1CCNCc1ccc(/C=C/C(=O)NO)cc1 [Panobinostat] (1000 nM) | – | – | – | – | – | – | – | – | – | – | – | – | – | – | 39.2% | 69.6% | -30.8% | 34.9% | 53.1% | -26% | 47.3% | 19.9% | -12.8% | 86.6% | 4.38% | 68.2% | -0.17% | 75.5%
8 | COCC1(CO)C(=O)C2CCN1CC2 (configuration not stated) [Prima-1 Met] | 1.24 | 0 | 0 | 0 | 0 | 0 | 0 | 0 | 0 | – | 0 | 0 | 0 | 0 | – | – | – | – | – | – | – | – | – | – | – | – | – | –
9 | COCC1(CO)C(=O)C2CCN1CC2 (configuration not stated) [Prima-1 Met] (1000 nM) | – | – | – | – | – | – | – | – | – | – | – | – | – | – | 101% | 112% | 99.5% | 101% | 109% | 102% | 114% | 104% | 108% | 71% | 71.1% | 104% | 103% | 107%
10 | COCC1(CO)C(=O)C2CCN1CC2 (configuration not stated) [Prima-1 Met] (10000 nM) | – | – | – | – | – | – | – | – | – | – | – | – | – | – | 102% | 63.4% | 92.1% | 106% | 108% | 74.2% | 93% | 101% | 117% | 62.3% | 99.3% | 107% | 119% | 104%
11 | CNC(=O)c1ccc(N2C(=S)N(c3ccc(C#N)c(C(F)(F)F)c3)C(=O)C23CCC3)cc1F [RD162] | 0 | 0 | 0 | 0 | 0 | 0 | 0 | 0 | 0 | 0 | 0 | 0 | 0 | – | – | – | – | – | – | – | – | – | – | – | – | – | – | –
